Measurements reported in patent publication US20030129250A1, “Particulate compositions for improving solubility of poorly soluble agents” (Advanced Inhalation Research Inc., priority 2001, published 2003).

Assay: Initial screening for poor solubility in aqueous media
Description: Many potential candidates were screened during this process. […] This list was then prioritized based on aqueous solubility, safety, and cost. […] This test was done by mixing […] of PBS and adding 10 mg of bulk drug. […] If the drug fully dissolved at this concentration, it was not considered for the testing.

[1] = PBS pH 7.4, 10 mg bulk drug in 0.3-1.0 L, criterion: no more soluble than 20 mg/L

| Compound | poor solubility screening in aqueous media (pH 7.4) | poor solubility screening in aqueous media [1] |
| --- | --- | --- |
| COc1ccc(Cl)cc1C(=O)NCCc1ccc(S(=O)(=O)NC(=O)NC2CCCCC2)cc1 [glyburide, 1-[[p-[2-(5-chloro-o-anisamido)ethyl]phenyl]-sulfonyl]-3-cyclohexylurea] | passed the initial screening | – |
| Cc1c(OCC(F)(F)F)ccnc1C[S+]([O-])c1nc2ccccc2[nH]1 (stereo not drawn) [lansoprazole] | – | passed the initial screening |
| CN1C(C(=O)Nc2ccccn2)=C(O)c2ccccc2S1(=O)=O [piroxicam] | – | passed the initial screening |
